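Exposure lasted 48 hours, with cells grown in 96-well plates and compounds tested at five concentrations. Here, GI50 denotes the concentration required for 50% inhibition of growth.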 Active and inactive are the calls of the source. Rule as the data show it: active = GI50 up to about 1.1 µM and inactive = higher.

Some test systems named below: KM12; Malme-3M; HCC 2998; COLO 205; NCI-H522; NCI/ADR-RES; UACC-62; UO-31; OVCAR-8; A498; OVCAR-5; A549; UACC-257; SF-295; RPMI-8226; SN12C; MCF7; DU-145; RXF 393; CAKI-1.
Assay in all cases: inhibition of tumour cell growth, NCI panel, 48 h

Turning to `Cc1cc(S(=O)(=O)N/C(=C(\C#N)C(=O)c2ccc(Cl)cc2)[n+]2ccc(N(C)C)cc2)c([S-])cc1Cl`, the GI50 with KM12 was > 100 µM (inactive); in the assay on Malme-3M it was 0.836 µM (active); in the assay on HCC 2998 it was 83 µM (inactive); in the assay on COLO 205, > 100 µM (inactive); with NCI-H522, 28.9 µM (inactive); in the assay with NCI/ADR-RES, 73.3 µM (inactive). Moreover, the GI50 in the assay with UACC-62 is > 100 µM (inactive); in the assay on UO-31, > 100 µM (inactive); in the assay on OVCAR-8 it was > 100 µM (inactive); with A498 it was 12.3 µM (inactive); in the assay with OVCAR-5, 66.5 µM (inactive); in the assay on A549, 37.6 µM (inactive). Also, the GI50 with UACC-257 is < 0.01 µM (active); with SF-295, 62.2 µM (inactive); with RPMI-8226, 45.2 µM (inactive); in the assay on SN12C it was > 100 µM (inactive); in the assay on MCF7, 71.3 µM (inactive); with DU-145, > 100 µM (inactive). Besides, the GI50 in the assay with RXF 393 and with CAKI-1 was > 100 µM (inactive) in each case.
On to `O=C(Nc1nncs1)NS(=O)(=O)n1c(=S)sc2ccccc21`, for which the GI50 in the assay with KM12 was > 100 µM (inactive); with Malme-3M it was > 100 µM (inactive); in the assay with HCC 2998, > 100 µM (inactive); in the assay on COLO 205, > 100 µM (inactive); with NCI-H522 it was 48.1 µM (inactive); in the assay with NCI/ADR-RES, > 100 µM (inactive). In addition, the GI50 with UACC-62, in the assay on UO-31, with OVCAR-8, in the assay on A498, in the assay with OVCAR-5 and in the assay on A549 was > 100 µM (inactive) in each case. Moreover, the GI50 in the assay on UACC-257, in the assay on SF-295, with RPMI-8226, with SN12C, in the assay on MCF7 and with DU-145 was > 100 µM (inactive) each time. The GI50 with RXF 393 and with CAKI-1 was > 100 µM (inactive) in each case.
Take `O=C(O)Cc1c(-c2ccc([N+](=O)[O-])cc2)c(=O)oc2cc(O)ccc12`: the GI50 in the assay with KM12 was 26.9 µM (inactive); in the assay with Malme-3M, 24.1 µM (inactive); with HCC 2998, 25.1 µM (inactive); in the assay with COLO 205 it was 34.2 µM (inactive); in the assay with NCI-H522 it was 29 µM (inactive); in the assay on NCI/ADR-RES it was 20 µM (inactive). Moreover, the GI50 is 38.9 µM (inactive) in the assay with UACC-62; 23.4 µM (inactive) in the assay with UO-31; 23.2 µM (inactive) in the assay with OVCAR-8; 22.4 µM (inactive) in the assay on A498; 30.1 µM (inactive) with OVCAR-5; 37.3 µM (inactive) in the assay on A549. In addition, the GI50 is 20.4 µM (inactive) with UACC-257; 16.1 µM (inactive) in the assay on SF-295; 19.9 µM (inactive) in the assay on RPMI-8226; 30.5 µM (inactive) in the assay on SN12C; 32.5 µM (inactive) in the assay with MCF7; 30.4 µM (inactive) in the assay with DU-145. For the same molecule, the GI50 was 30.3 µM (inactive) with RXF 393 and > 10 µM (inactive) in the assay on CAKI-1.
`CC(NC(=O)c1ccc(Cl)c(Cl)c1)c1ccc(-c2ccccc2)cc1` (stereo not given): the GI50 in the assay with KM12 is 57.7 µM (inactive); with Malme-3M, 21.5 µM (inactive); in the assay with HCC 2998, 43.1 µM (inactive); with COLO 205, > 100 µM (inactive); in the assay with NCI-H522 it was 33.3 µM (inactive); with NCI/ADR-RES, 54.8 µM (inactive). Moreover, the GI50 is 31.6 µM (inactive) in the assay on UACC-62; 14.2 µM (inactive) with UO-31; 26.3 µM (inactive) with OVCAR-8; 28.9 µM (inactive) in the assay on A498; 44.9 µM (inactive) with OVCAR-5; 16.4 µM (inactive) with A549. The GI50 in the assay on UACC-257 is 76.2 µM (inactive); in the assay on SF-295 it was 29.9 µM (inactive); in the assay with RPMI-8226, 39.4 µM (inactive); with SN12C it was 52.2 µM (inactive); with MCF7, 78 µM (inactive); in the assay with DU-145, 18.3 µM (inactive). The GI50 in the assay with RXF 393 is 12.1 µM (inactive); in the assay with CAKI-1, 29.9 µM (inactive).
With `COC1/C=C\C=C(/C)C(=O)NC2=CC(=O)C(O)=C(CC(C)CC(OC)C(O)C(C)/C=C(\C)C1OC(N)=O)C2=O` (stereo not given), the GI50 in the assay on KM12 was 0.649 µM (active); with Malme-3M it was 0.0668 µM (active); in the assay with HCC 2998 it was 1.4 µM (inactive); with COLO 205 it was 0.0422 µM (active); in the assay on NCI-H522, 0.0596 µM (active); in the assay on NCI/ADR-RES, 64.6 µM (inactive). The GI50 is 0.382 µM (active) in the assay on UACC-62; 3.95 µM (inactive) with UO-31; 0.351 µM (active) in the assay on OVCAR-8; 38.5 µM (inactive) with A498; 11.5 µM (inactive) in the assay with OVCAR-5; 4.79 µM (inactive) in the assay with A549. The GI50 in the assay with UACC-257 was 0.384 µM (active); with SF-295, 4.99 µM (inactive); in the assay with RPMI-8226 it was 0.0789 µM (active); with SN12C, 0.0446 µM (active); in the assay with MCF7, 0.0826 µM (active); with DU-145, 0.115 µM (active). Also, the GI50 in the assay with RXF 393 was 0.136 µM (active); in the assay with CAKI-1 it was 2.55 µM (inactive).
Turning to `CC(=O)N1N=C(c2c(O)ccc3ccccc23)CC1C(=O)c1ccco1` (stereo not given), the GI50 was 28.1 µM (inactive) in the assay with KM12; 30.5 µM (inactive) in the assay on Malme-3M; 50.1 µM (inactive) in the assay with HCC 2998; 24.7 µM (inactive) in the assay on COLO 205; 28.2 µM (inactive) with NCI-H522; 28.2 µM (inactive) with NCI/ADR-RES. The GI50 was 16.4 µM (inactive) with UACC-62; 21.6 µM (inactive) in the assay with UO-31; 39 µM (inactive) in the assay on OVCAR-8; 41.5 µM (inactive) in the assay on A498; 55 µM (inactive) with OVCAR-5; 28.2 µM (inactive) in the assay with A549. In addition, the GI50 with UACC-257 is 31.6 µM (inactive); in the assay with SF-295, 35.2 µM (inactive); in the assay on RPMI-8226, 14 µM (inactive); with SN12C it was 32.4 µM (inactive); with MCF7, 14.5 µM (inactive); in the assay with DU-145, 47.4 µM (inactive). Also, the GI50 in the assay on RXF 393 was 25.1 µM (inactive); with CAKI-1, 42.6 µM (inactive).
For the molecule `O=C(CSc1ncccn1)N/N=C/c1ccccc1OCc1ccccc1`, the GI50 in the assay on KM12 is 28.4 µM (inactive); with Malme-3M it was 32.4 µM (inactive); with HCC 2998, 27.8 µM (inactive); in the assay on COLO 205, 19.2 µM (inactive); in the assay with NCI-H522, 28.4 µM (inactive); in the assay with NCI/ADR-RES, 25.9 µM (inactive). The GI50 in the assay on UACC-62 was 20.9 µM (inactive); in the assay with UO-31 it was 44.5 µM (inactive); in the assay on OVCAR-8, 28.7 µM (inactive); in the assay with A498, 22.1 µM (inactive); in the assay on OVCAR-5, > 100 µM (inactive); in the assay with A549, 71.8 µM (inactive). Besides, the GI50 was 21 µM (inactive) with UACC-257; 21.6 µM (inactive) with SF-295; 19.5 µM (inactive) in the assay with RPMI-8226; 27.2 µM (inactive) in the assay with SN12C; 17.6 µM (inactive) in the assay on MCF7; 29.8 µM (inactive) with DU-145. Moreover, the GI50 in the assay on RXF 393 was 21.9 µM (inactive); in the assay with CAKI-1, 26.4 µM (inactive).
As to `NS(=O)(=O)c1ccc(NC(=O)N/N=C/c2ccccc2O)cc1`, the GI50 is 33.7 µM (inactive) in the assay with KM12; 74.3 µM (inactive) with Malme-3M; 40.7 µM (inactive) in the assay on HCC 2998; 35.5 µM (inactive) in the assay on COLO 205; 22.4 µM (inactive) with NCI-H522; 68.4 µM (inactive) in the assay on NCI/ADR-RES. The GI50 in the assay on UACC-62 was 60.4 µM (inactive); in the assay on UO-31 it was 60.7 µM (inactive); in the assay with OVCAR-8 it was 45.1 µM (inactive); in the assay on A498, > 100 µM (inactive); in the assay with OVCAR-5 it was > 100 µM (inactive); in the assay with A549, > 100 µM (inactive). Also, the GI50 in the assay on UACC-257 was 58.6 µM (inactive); in the assay with SF-295, 67.8 µM (inactive); in the assay with RPMI-8226, > 100 µM (inactive); in the assay on SN12C, 85.3 µM (inactive); with MCF7, 58.2 µM (inactive); in the assay on DU-145 it was > 100 µM (inactive). Further, the values for the GI50 in the assay on RXF 393 and in the assay with CAKI-1 were > 100 µM (inactive) and 94.4 µM (inactive), respectively.
On to `CC1(C)O[C@@H]2C[C@H]3[C@@H]4C[C@H](F)C5=CC(=O)C=C[C@]5(C)[C@@]4(F)[C@@H](O)C[C@]3(C)[C@]2(C(=O)CO)O1` [FLUOCINOLONE ACETONIDE], for which the GI50 in the assay with KM12, in the assay on Malme-3M, in the assay with HCC 2998, in the assay with COLO 205, in the assay on NCI-H522 and in the assay on NCI/ADR-RES was > 100 µM (inactive) throughout. In addition, the GI50 is > 100 µM (inactive) in the assay on UACC-62; > 87.5 µM (inactive) in the assay with UO-31; > 100 µM (inactive) with OVCAR-8; > 100 µM (inactive) in the assay on A498; > 100 µM (inactive) in the assay on OVCAR-5; > 100 µM (inactive) in the assay with A549. The GI50 in the assay on UACC-257 was > 89.3 µM (inactive); in the assay with SF-295, > 100 µM (inactive); in the assay on RPMI-8226, < 0.01 µM (active); in the assay on SN12C it was 12 µM (inactive); in the assay on MCF7, > 100 µM (inactive); in the assay with DU-145 it was > 100 µM (inactive). In addition, the GI50 with RXF 393 and in the assay on CAKI-1 was > 100 µM (inactive) each time.
Take `CCCNC(=O)CCC(C)[C@H]1CCC2C3C(C[C@H](OC(C)=O)[C@@]21C)[C@@]1(C)CCC2(C[C@H]1C[C@H]3OC(C)=O)OOC1(CCC(C)CC1)OO2` (stereo not given in full): the GI50 is 5.52 µM (inactive) in the assay on KM12; 18.6 µM (inactive) in the assay on Malme-3M; 40.1 µM (inactive) in the assay on HCC 2998; 14.8 µM (inactive) in the assay on COLO 205; 13 µM (inactive) in the assay with NCI-H522; 16.6 µM (inactive) in the assay on NCI/ADR-RES. For the same molecule, the GI50 was 43.5 µM (inactive) with UACC-62; 0.959 µM (active) in the assay with UO-31; 19.5 µM (inactive) in the assay with OVCAR-8; 22.2 µM (inactive) in the assay with A498; 29.2 µM (inactive) in the assay with OVCAR-5; 2.17 µM (inactive) in the assay on A549. For the same molecule, the GI50 in the assay on UACC-257 is 23.2 µM (inactive); in the assay with SF-295, 26.7 µM (inactive); with RPMI-8226, 3.65 µM (inactive); with SN12C, 43.6 µM (inactive); with MCF7, 34.7 µM (inactive); with DU-145, 9.31 µM (inactive). For the same molecule, the GI50 in the assay with RXF 393 is 50 µM (inactive); in the assay with CAKI-1, 2.28 µM (inactive).
